In PMC8217813, “Bridging Computational Vaccinology and Vaccine Development Through Systematic Identification, Characterization, and Downselection of Conserved and Variable Circumsporozoite Protein CD4 T Cell Epitopes From Diverse Plasmodium falciparum Strains” (Frontiers in Immunology, 2021):

System: CD4 T cells co-cultured with autologous DCs from PBMCs
Type: cell-based, human
Details: positive = Stimulation Index ≥1.5-fold above baseline, 5 µg/mL peptide

In the case of DQHIEKYLKTIKNSLSTEWS [ICS10], the “Percentage of donors demonstrating IFN-γ responses, DR1” value (DR1 donors N=5, ICCS after 14-day co-culture) is reported as 20%, the “Percentage of donors demonstrating IL-2 responses, DR1” value (DR1 donors N=5, ICCS) is reported as 0% and the “Percentage of donors demonstrating IL-4 responses, DR1” value (DR1 donors N=5, ICCS) is reported as 0%. For the same sequence, the “Percentage of donors demonstrating IL-10 responses, DR1” value (DR1 donors N=5, ICCS) was 0%, the “Percentage of donors demonstrating TNF-α responses, DR1” value (DR1 donors N=5, ICCS) was 0% and the “Percentage of donors demonstrating IFN-γ responses, DR3” value (DR3 donors N=6, ICCS after 14-day co-culture) was 33%. The “Percentage of donors demonstrating IL-2 responses, DR3” value (DR3 donors N=6, ICCS) was 17%, the “Percentage of donors demonstrating IL-4 responses, DR3” value (DR3 donors N=6, ICCS) was 17% and the “Percentage of donors demonstrating IL-10 responses, DR3” value (DR3 donors N=6, ICCS) was 0%. For the same sequence, the “Percentage of donors demonstrating TNF-α responses, DR3” value (DR3 donors N=6, ICCS) was 17%, the “Percentage of donors demonstrating IFN-γ responses, DR4” value (DR4 donors N=10, ICCS after 14-day co-culture) was 40% and the “Percentage of donors demonstrating IL-2 responses, DR4” value (DR4 donors N=10, ICCS) was 30%. The “Percentage of donors demonstrating IL-4 responses, DR4” value (DR4 donors N=10, ICCS) was 0%, the “Percentage of donors demonstrating IL-10 responses, DR4” value (DR4 donors N=10, ICCS) was 10% and the “Percentage of donors demonstrating TNF-α responses, DR4” value (DR4 donors N=10, ICCS) was 10%. The “Percentage of donors demonstrating IFN-γ responses, DR7” value (DR7 donors N=4, ICCS after 14-day co-culture) was 75%, the “Percentage of donors demonstrating IL-2 responses, DR7” value (DR7 donors N=4, ICCS) was 25% and the “Percentage of donors demonstrating IL-4 responses, DR7” value (DR7 donors N=4, ICCS) was 0%. For the same sequence, the “Percentage of donors demonstrating IL-10 responses, DR7” value (DR7 donors N=4, ICCS) was 25%, the “Percentage of donors demonstrating TNF-α responses, DR7” value (DR7 donors N=4, ICCS) was 25% and the “Percentage of donors demonstrating IFN-γ responses, DR8” value (DR8 donors N=4, ICCS after 14-day co-culture) was 0%. For the same sequence, the “Percentage of donors demonstrating IL-2 responses, DR8” value (DR8 donors N=4, ICCS) was 0%, the “Percentage of donors demonstrating IL-4 responses, DR8” value (DR8 donors N=4, ICCS) was 0% and the “Percentage of donors demonstrating IL-10 responses, DR8” value (DR8 donors N=4, ICCS) was 0%. The “Percentage of donors demonstrating TNF-α responses, DR8” value (DR8 donors N=4, ICCS) was 0%, the “Percentage of donors demonstrating IFN-γ responses, DR9” value (DR9 donors N=4, ICCS after 14-day co-culture) was 25% and the “Percentage of donors demonstrating IL-2 responses, DR9” value (DR9 donors N=4, ICCS) was 25%. For the same sequence, the “Percentage of donors demonstrating IL-4 responses, DR9” value (DR9 donors N=4, ICCS) was 0%, the “Percentage of donors demonstrating IL-10 responses, DR9” value (DR9 donors N=4, ICCS) was 0% and the “Percentage of donors demonstrating TNF-α responses, DR9” value (DR9 donors N=4, ICCS) was 25%. The “Percentage of donors demonstrating IFN-γ responses, DR11” value (DR11 donors N=4, ICCS after 14-day co-culture) was 50%, the “Percentage of donors demonstrating IL-2 responses, DR11” value (DR11 donors N=4, ICCS) was 50% and the “Percentage of donors demonstrating IL-4 responses, DR11” value (DR11 donors N=4, ICCS) was 0%. For the same sequence, the “Percentage of donors demonstrating IL-10 responses, DR11” value (DR11 donors N=4, ICCS) was 0%, the “Percentage of donors demonstrating TNF-α responses, DR11” value (DR11 donors N=4, ICCS) was 25% and the “Percentage of donors demonstrating IFN-γ responses, DR13” value (DR13 donors N=7, ICCS after 14-day co-culture) was 29%. The “Percentage of donors demonstrating IL-2 responses, DR13” value (DR13 donors N=7, ICCS) was 14%, the “Percentage of donors demonstrating IL-4 responses, DR13” value (DR13 donors N=7, ICCS) was 0% and the “Percentage of donors demonstrating IL-10 responses, DR13” value (DR13 donors N=7, ICCS) was 0%. For the same sequence, the “Percentage of donors demonstrating TNF-α responses, DR13” value (DR13 donors N=7, ICCS) was 14%, the “Percentage of donors demonstrating IFN-γ responses, DR15” value (DR15 donors N=7, ICCS after 14-day co-culture) was 57% and the “Percentage of donors demonstrating IL-2 responses, DR15” value (DR15 donors N=7, ICCS) was 14%. The “Percentage of donors demonstrating IL-4 responses, DR15” value (DR15 donors N=7, ICCS) was 14%, the “Percentage of donors demonstrating IL-10 responses, DR15” value (DR15 donors N=7, ICCS) was 0% and the “Percentage of donors demonstrating TNF-α responses, DR15” value (DR15 donors N=7, ICCS) was 14%.
